How the values were obtained:
Format in all cases: cell-based, human
TET1 mRNA in 1833 cells = experiment: qRT-PCR for TET1 mRNA after demethylation treatment of 1833 cells; settings: 1833 cells treated with 5-azacytidine, GAPDH normalization (FIG. 18D)
Procedure: (§1) Total RNA was isolated from cells by using miRNeasy Mini Kit (Qiagen) following the manufacturer's instructions. Quantitative RT-PCR (qRT-PCR) was performed as described (4). The qPCR primers for human or murine HMGA2, TET1, HOXA genes and GAPDH were Taqman and were purchased from Applied Biosystems. Cells were subjected to 5-azacytidine (1 or 3.6 μM), decitabine (5-aza-dC; 220 or 440 nM), or mock treatment by addition into cell culture at indicated concentration. Cells were treated daily. RNA and protein were isolated respectively.

HOXA7 mRNA in 1833 cells = experiment: qRT-PCR for HOXA7 mRNA after demethylation treatment of 1833 cells; settings: 1833 cells treated with 5-azacytidine, GAPDH normalization (FIG. 20F)
Procedure: as §1

HOXA9 in 1833 cells = experiment: qRT-PCR / immunoblotting for HOXA9 after demethylation treatment of 1833 cells; settings: 1833 cells treated with demethylation reagent; qRT-PCR / immunoblotting (FIG. 20G, 27A, 27C)
Procedure: Total RNA was isolated from cells by using miRNeasy Mini Kit (Qiagen) following the manufacturer's instructions. Quantitative RT-PCR (qRT-PCR) was performed as described (4). The qPCR primers for human or murine HMGA2, TET1, HOXA genes and GAPDH were Taqman and were purchased from Applied Biosystems.
Cells were lysed in complete lysis buffer (pH 7.5) by using Nuclear Extract Kit (Active Motif) following the manufacturer's protocols. Proteins were measured, separated, and probed as described (4). Antibodies specific for each protein were HMGA2 (61042; Active Motif), TET1 (sc-163446; Santa Cruz Biotechnologies), HOXA7 (09-086; Millipore), HOXA9 (09-178; Millipore), GAPDH (ab9484; Abcam), and Flag-M1 (F3040; Sigma).
(§2) Cells were subjected to 5-azacytidine (1 or 3.6 μM), decitabine (5-aza-dC; 220 or 440 nM), or mock treatment by addition into cell culture at indicated concentration. Cells were treated daily. RNA and protein were isolated respectively.

1833 cells = experiment: In vitro cell invasion assay (Matrigel); settings: 1833 cells treated with demethylation reagent (FIG. 21D, 27B)
Procedure: as §2
Cell proliferation assays were performed by using the CellTiter-Blues assay (Promega) as described (4). Invasion assays were performed as described (4) with modifications. Briefly, the inserts were coated with Matrigel basement membrane matrix (BD Biosciences). To assess the cell invasion ability, […] cells were seeded on top of the polymerized Matrigel in serum-free medium, and complete medium (10% FBS) was placed in the lower compartment. After 24 h, cells on the lower part of the insert were stained with BD Calcein AM Fluorescent Dye. The inserts with the invaded cells were incubated in dissociation buffer (Travigen) with gentle shaking. Fluorescence measurements were used to record data with 485 nm for excitation and 530 nm for emission.

Nc1ncn([C@@H]2O[C@H](CO)[C@@H](O)[C@H]2O)c(=O)n1 [5-azacytidine]
TET1 expression (TET1 mRNA in 1833 cells): increase in TET1 expression | HOXA7 expression (HOXA7 mRNA in 1833 cells): dramatic increase | HOXA9 expression (HOXA9 in 1833 cells): dramatic increase | cell invasion (1833 cells): decreased cell invasion

— patent publication US10679730B2, “Prognostic and predictive breast cancer signature” (The University of Chicago, priority 2013, dated 2020)
